Reference: patent US20150141435A1, “2-PYRIDONE ANTIMICROBIAL COMPOSITIONS” (Emergent BioSolutions, priority 2010, published 2015)
In brackets after ≈: the same amount, converted by molar mass. Where two headings read alike, the source gives them in different places.

Key:
[1] = test system: E. faecium ATCC 19434; assay: MIC, CLSI broth microdilution (Table 1); format: cell-based; conditions: Enterococcus faecium, ATCC19434; Gram positive; MHB, 37° C., 16-20 hours; read-out: MIC E. faecium ATCC 19434
[2] = test system: Yersinia pestis C092; assay: microbe, parasite or virus in culture; format: cell-based
[3] = test system: Burkholderia pseudomallei ATCC 23343; assay: microbe, parasite or virus in culture; format: cell-based; conditions: ATCC23343
[4] = test system: Francisella tularensis Schu S4; assay: microbe, parasite or virus in culture; format: cell-based; conditions: SCHUS4
[5] = test system: Staphylococcus aureus (16 strains); assay: MIC range, broader panel incl. clinical isolates (Table 3); format: cell-based
[6] = test system: S. aureus BAA-1720 (MRSA, FQ-R); assay: MIC, CLSI broth microdilution (Table 1); format: cell-based; conditions: Staphylococcus aureus; Gram positive; MHB, 37° C., 16-20 hours; read-out: MIC S. aureus BAA-1720 (MRSA, FQ-R)
[7] = test system: K. pneumoniae ATCC 33495; assay: MIC, CLSI broth microdilution (Table 2); format: cell-based; conditions: Klebsiella pneumoniae, ATCC33495; Gram negative; MHB, 37° C., 16-20 hours; read-out: MIC K. pneumoniae ATCC 33495
[8] = test system: A. baumannii ATCC 19606; assay: MIC, CLSI broth microdilution (Table 2); format: cell-based; conditions: Acinetobacter baumannii, ATCC19606; Gram negative; MHB, 37° C., 16-20 hours; read-out: MIC A. baumannii B. ATCC 19606
[9] = test system: S. pneumonia ATCC 49619; assay: MIC, CLSI broth microdilution (Table 1); format: cell-based; conditions: Streptococcus pneumoniae, ATCC49619; Gram positive; MHB, 37° C., 16-20 hours; read-out: MIC S. pneumonia ATCC 49619
[10] = test system: Burkholderia mallei ATCC 23344; assay: microbe, parasite or virus in culture; format: cell-based; conditions: ATCC23344
[11] = test system: H. influenzae ATCC 49247; assay: MIC, CLSI broth microdilution (Table 2); format: cell-based; conditions: Haemophilus influenzae, ATCC49247; Gram negative; MHB, 37° C., 16-20 hours; read-out: MIC H. influenzae ATCC 49247
[12] = test system: Burkholderia cepacia (5 strains); assay: MIC range, broader panel incl. clinical isolates (Table 4); format: cell-based
[13] = test system: E. coli ATCC 25922; assay: MIC, CLSI broth microdilution (Table 2); format: cell-based; conditions: Escherichia coli, ATCC25922; Gram negative; MHB, 37° C., 16-20 hours; read-out: MIC E. coli ATCC 25922
[14] = test system: S. maltophilia ATCC 17677; assay: MIC, CLSI broth microdilution (Table 2); format: cell-based; conditions: Stenotrophomonas maltophilia, ATCC17677; Gram negative; MHB, 37° C., 16-20 hours; read-out: MIC S. maltophilia ATCC 17677
[15] = test system: Bacillus anthracis Ames strain; assay: microbe, parasite or virus in culture; format: cell-based
[16] = test system: Escherichia coli (6 strains); assay: MIC range, broader panel incl. clinical isolates (Table 4); format: cell-based
[17] = test system: Klebsiella pneumonia (4 strains); assay: as above; format: cell-based; conditions: Klebsiella pneumoniae
[18] = test system: Pseudomonas aeruginosa (12 strains); assay: as above; format: cell-based
[19] = test system: Enterococcus faecium (3 strains); assay: MIC range, broader panel incl. clinical isolates (Table 3); format: cell-based
[20] = test system: Group C Streptococcus (4 strains); assay: as above; format: cell-based
[21] = test system: Enterococcus faecalis (5 strains); assay: as above; format: cell-based
[22] = test system: S. aureus ATCC 25923; assay: MIC, CLSI broth microdilution (Table 1); format: cell-based; conditions: Staphylococcus aureus, ATCC25923; Gram positive; MHB, 37° C., 16-20 hours; read-out: MIC S. aureus ATCC 25923
[23] = test system: S. aureus ATCC 43300 (MRSA, FQ-S); assay: MIC, CLSI broth microdilution (Table 1); format: cell-based; conditions: Staphylococcus aureus; Gram positive; MHB, 37° C., 16-20 hours; read-out: MIC S. aureus ATCC 43300 (MRSA, FQ-S)
[24] = test system: Streptococcus pneumonia (5 strains); assay: MIC range, broader panel incl. clinical isolates (Table 3); format: cell-based; conditions: Streptococcus pneumoniae
[25] = test system: Streptococcus pyogenes (4 strains); assay: as above; format: cell-based
[26] = test system: Acinetobacter baumannii (12 strains); assay: MIC range, broader panel incl. clinical isolates (Table 4); format: cell-based; conditions: Median of 12 strains
[27] = test system: Haemophilus influenza (5 strains); assay: as above; format: cell-based, Haemophilus influenzae
[28] = test system: E. faecalis ATCC 29212; assay: MIC, CLSI broth microdilution (Table 1); format: cell-based; conditions: Enterococcus faecalis, ATCC29212; Gram positive; MHB, 37° C., 16-20 hours; read-out: MIC E. faecalis ATCC 29212

Cc1c(C2=CCNCC2)ccn2c(=O)c(C(=O)O)cc(C3CC3)c12 [Example 42, 1-cyclopropyl-9-methyl-4-oxo-8-(1,2,3,6-tetrahydropyridin-4-yl)-4H-quinolizine-3-carboxylic acid] was tested, and the MIC [1] was over 8 mg/L, the MIC [2] was 0.5 to 1 mg/L (≈ 1.54 to 3.08 µM) and the MIC [3] was 4 mg/L (≈ 12.3 µM). The MIC [4] was 0.25 to 0.5 mg/L (≈ 0.771 to 1.54 µM), the “MIC Range High, Staphylococcus aureus (16 strains)” value ([5]; High of 16 strains) was 32 mg/L (≈ 98.6 µM) and the “MIC Range Low, Staphylococcus aureus (16 strains)” value ([5]; Low of 16 strains) was 0.5 mg/L (≈ 1.54 µM). For the same molecule, the “MIC Range Median, Staphylococcus aureus (16 strains)” value ([5]; Median of 16 strains) was 16.25 mg/L (≈ 50.1 µM), the MIC [6] was over 8 mg/L and the MIC [7] was 0.125 mg/L (≈ 0.385 µM). For the same molecule, the MIC [8] was 2 mg/L (≈ 6.17 µM), the MIC [9] was 2 mg/L (≈ 6.17 µM) and the MIC [10] was 2 mg/L (≈ 6.17 µM). The MIC [11] was 0.064 mg/L (≈ 0.197 µM), the “MIC Range High, Burkholderia cepacia (5 strains)” value ([12]; High of 5 strains) was 2 mg/L (≈ 6.17 µM) and the “MIC Range Low, Burkholderia cepacia (5 strains)” value ([12]; Low of 5 strains) was 2 mg/L (≈ 6.17 µM). For the same molecule, the “MIC Range Median, Burkholderia cepacia (5 strains)” value ([12]; Median of 5 strains) was 2 mg/L (≈ 6.17 µM), the MIC [13] was 0.064 mg/L (≈ 0.197 µM) and the MIC [14] was 1 mg/L (≈ 3.08 µM). It also gave an MIC [15] of 0.25 mg/L (≈ 0.771 µM).

C[C@H]1COc2c(N3CCN(C)CC3)c(F)cc3c(=O)c(C(=O)O)cn1c23 [Levofloxacin] was tested, and the MIC [1] was 8 mg/L (≈ 22.1 µM), the MIC ([16]; High of 6 strains, read-out: MIC Range High, Escherichia coli (6 strains)) was at least 16 mg/L and the MIC ([16]; Low of 6 strains, read-out: MIC Range Low, Escherichia coli (6 strains)) was 0.015 mg/L (≈ 0.0415 µM). The MIC50 ([16]; Median of 6 strains) was at least 16 mg/L, the MIC ([17]; High of 4 strains, read-out: MIC Range High, Klebsiella pneumonia (4 strains)) was 2 mg/L (≈ 5.53 µM) and the MIC ([17]; Low of 4 strains, read-out: MIC Range Low, Klebsiella pneumonia (4 strains)) was 0.03 mg/L (≈ 0.083 µM). For the same molecule, the MIC50 ([17]; Median of 4 strains) was 2 mg/L (≈ 5.53 µM), the MIC ([5]; Staphylococcus aureus, High of 16 strains, read-out: MIC Range High, Staphylococcus aureus (16 strains)) was at least 16 mg/L and the MIC ([5]; Staphylococcus aureus, Low of 16 strains, read-out: MIC Range Low, Staphylococcus aureus (16 strains)) was 0.12 mg/L (≈ 0.332 µM). The MIC50 ([5]; Staphylococcus aureus, Median of 16 strains) was 0.25 mg/L (≈ 0.692 µM), the MIC [6] was over 8 mg/L and the MIC [7] was 0.032 mg/L (≈ 0.0886 µM). The MIC ([18]; High of 12 strains, read-out: MIC Range High, Pseudomonas aeruginosa (12 strains)) was at least 16 mg/L, the MIC ([18]; Low of 12 strains, read-out: MIC Range Low, Pseudomonas aeruginosa (12 strains)) was 1 mg/L (≈ 2.77 µM) and the MIC50 ([18]; Median of 12 strains) was at least 16 mg/L. It also gave an MIC ([19]; High of 3 strains, read-out: MIC Range High, Enterococcus faecium (3 strains)) of at least 16 mg/L, an MIC ([19]; Low of 3 strains, read-out: MIC Range Low, Enterococcus faecium (3 strains)) of 2 mg/L (≈ 5.53 µM) and an MIC50 ([19]; Median of 3 strains) of at least 16 mg/L. For the same molecule, the MIC ([20]; High of 4 strains, read-out: MIC Range High, Group C Streptococcus (4 strains)) was 1 mg/L (≈ 2.77 µM), the MIC ([20]; Low of 4 strains, read-out: MIC Range Low, Group C Streptococcus (4 strains)) was 0.5 mg/L (≈ 1.38 µM) and the MIC50 ([20]; Median of 4 strains) was 0.75 mg/L (≈ 2.08 µM). It also gave an MIC [8] of 0.25 mg/L (≈ 0.692 µM), an MIC [9] of 0.5 mg/L (≈ 1.38 µM) and an MIC ([21]; High of 5 strains, read-out: MIC Range High, Enterococcus faecalis (5 strains)) of at least 16 mg/L. It also gave an MIC ([21]; Low of 5 strains, read-out: MIC Range Low, Enterococcus faecalis (5 strains)) of 1 mg/L (≈ 2.77 µM), an MIC50 ([21]; Median of 5 strains) of 2 mg/L (≈ 5.53 µM) and an MIC [22] of 0.25 mg/L (≈ 0.692 µM). The MIC [11] was 0.016 mg/L (≈ 0.0443 µM), the MIC [23] was 0.125 mg/L (≈ 0.346 µM) and the MIC ([12]; Burkholderia cepacia, High of 5 strains, read-out: MIC Range High, Burkholderia cepacia (5 strains)) was 2 mg/L (≈ 5.53 µM). It also gave an MIC ([12]; Burkholderia cepacia, Low of 5 strains, read-out: MIC Range Low, Burkholderia cepacia (5 strains)) of 1 mg/L (≈ 2.77 µM), an MIC50 ([12]; Burkholderia cepacia, Median of 5 strains) of 2 mg/L (≈ 5.53 µM) and an MIC ([24]; High of 5 strains, read-out: MIC Range High, Streptococcus pneumonia (5 strains)) of 2 mg/L (≈ 5.53 µM). For the same molecule, the MIC ([24]; Low of 5 strains, read-out: MIC Range Low, Streptococcus pneumonia (5 strains)) was 0.5 mg/L (≈ 1.38 µM), the MIC50 ([24]; Median of 5 strains) was 1 mg/L (≈ 2.77 µM) and the MIC ([25]; High of 4 strains, read-out: MIC Range High, Streptococcus pyogenes (4 strains)) was 2 mg/L (≈ 5.53 µM). For the same molecule, the MIC ([25]; Low of 4 strains, read-out: MIC Range Low, Streptococcus pyogenes (4 strains)) was 0.5 mg/L (≈ 1.38 µM), the MIC50 ([25]; Median of 4 strains) was 0.75 mg/L (≈ 2.08 µM) and the MIC50 [26] was at least 16 mg/L. It also gave an MIC ([27]; High of 5 strains, read-out: MIC Range High, Haemophilus influenza (5 strains)) of 0.015 mg/L (≈ 0.0415 µM), an MIC ([27]; Low of 5 strains, read-out: MIC Range Low, Haemophilus influenza (5 strains)) of 0.008 mg/L (≈ 0.0221 µM) and an MIC50 ([27]; Median of 5 strains) of 0.015 mg/L (≈ 0.0415 µM). It also gave an MIC [14] of 0.25 mg/L (≈ 0.692 µM) and an MIC [28] of 1 mg/L (≈ 2.77 µM).
